Measurements from PubChem BioAssay (NCI).
Values joined by “and” are separate entries in the source; they are usually repeats but may differ in a detail not shown here. Equal entries are not always repeated.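 Values below derive from 48-hour exposures of cells grown in 96-well plates, with endpoints linearly interpolated between the two concentrations bracketing the appropriate inhibition level. The concentration for 50% growth inhibition is given as GI50. TGI: concentration producing complete growth inhibition.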

Experiments:
Test in all cases: NCI tumour cell line growth inhibition, 48 h
SN12C renal = system: SN12C renal
K-562 leukemia = system: K-562 leukemia
A498 renal = system: A498 renal
SK-MEL-2 melanoma = system: SK-MEL-2 melanoma
UO-31 renal = system: UO-31 renal
HOP-92 NSCLC = system: HOP-92 NSCLC
MALME-3M melanoma = system: MALME-3M melanoma
HCT-116 colon = system: HCT-116 colon
HCC-2998 colon = system: HCC-2998 colon
MDA-N = system: MDA-N

Row | SMILES | TGI (SN12C renal) [µM] | TGI (K-562 leukemia) [µM] | TGI (A498 renal) [µM] | TGI (SK-MEL-2 melanoma) [µM] | TGI (UO-31 renal) [µM] | TGI (HOP-92 NSCLC) [µM] | TGI (MALME-3M melanoma) [µM] | TGI (HCT-116 colon) [µM] | TGI (HCC-2998 colon) | TGI (MDA-N) [µM] | GI50 (SN12C renal) [µM] | GI50 (HCC-2998 colon) [µM] | GI50 (MDA-N) [µM] | GI50 (SK-MEL-2 melanoma) [µM] | GI50 (UO-31 renal) [µM] | GI50 (HOP-92 NSCLC) [µM] | GI50 (HCT-116 colon) [µM]
1 | CNC(=O)OCC1=C(COC(=O)NC)C(C)N(c2ccc(OC)cc2)C1 (centres undefined) | > 100 | > 100 | 1.74 | > 100 | > 100 | > 100 | > 100 | > 100 | – | – | – | – | – | – | – | – | –
2 | O=C1CCC(=O)N1n1c(Cc2ccccc2)n[nH]c1=O | > 100 | > 100 | > 100 | > 100 | > 100 | – | > 100 | > 100 | > 100 µM | > 100 | – | – | – | – | – | – | –
3 | CC1=C(C)[C@@]2(C)O[C@@]2(C)O[C@@]2(C)O[C@@]12C | > 100 | > 100 | > 100 | > 100 | > 100 | > 100 | > 100 | > 100 | – | > 100 | – | – | – | – | – | – | –
4 | CC(=O)NC1=C(NCCC(C)C)C(=O)c2ccccc2C1=O | > 50 | > 50 | – | > 50 | > 50 | > 50 | > 50 | > 50 | > 50 µM | – | – | – | – | – | – | – | –
5 | FC(F)(F)c1cc(Cl)cnc1N/N=C(/c1ccccc1)c1ccccn1 | > 100 | 49.9 | – | 20.1 | 11.9 | 16.3 | – | 19.2 | > 100 µM | > 100 | – | – | – | – | – | – | –
6 | Cc1cc(N(CCC#N)CCC#N)ccc1/C(N=Nc1ccc(Cl)cc1)=N\NC(=O)c1ccccc1 | > 100 | > 100 | 58.5 | > 100 | > 100 | – | > 100 | > 100 | > 100 µM | 74.2 | – | – | – | – | – | – | –
7 | C[n+]1c2ccccc2c(/C=N\NS(=O)(=O)c2ccc(O)c(C(=O)O)c2)c2ccccc21 | > 100 | > 100 | > 100 | > 100 | > 100 | > 100 | > 100 | > 100 | > 100 µM | – | – | – | – | – | – | – | –
8 | CCCNC1=C2CC(C)CC(OC)[C@@H](O)[C@H](C)/C=C(\C)C(OC(N)=O)C(OC)/C=C\C=C(/C)C(=O)NC(=CC1=O)C2=O (some centres undefined) | 28.7 | > 100 | 9.55 | 31.4 | 32.2 | – | – | > 100 | 3.23 µM and 13.1 µM | 17.1 | 0.235 | 0.359 | 0.0757 | 13.1 | 0.558 | 16.8 | 0.0589
9 | CNC(=O)C(C)C1CCC2(C)C=CC(=O)C(C)=C2C1O (centres undefined) | > 100 | > 100 | > 100 | > 100 | > 68.3 | > 100 | – | > 100 | > 100 µM | – | – | – | – | – | – | – | –
10 | COc1ccc(CNc2nc(NCc3ccc(OC)c(OC)c3)nc(NC3CCCCC3)n2)cc1 | > 100 | > 100 | – | > 100 | > 100 | > 100 | > 100 | > 100 | – | – | – | – | – | – | – | – | –
11 | COc1cc(/C=C2\S/C(=N/Nc3nc(-c4ccc(Br)cc4)cs3)NC2=O)cc(OC)c1OC | > 100 | – | – | 35.8 | 16.7 | 18.3 | – | 17.2 | 32.5 µM | 75.1 | – | – | – | – | – | – | –
12 | CC[C@@]1(C[C@H]2C[C@@]3(C(=O)OC)c4[nH]c5ccccc5c4CCN3C2=O)COC2(CCCCC2)O1 | > 100 | > 100 | – | 96.3 | > 100 | – | > 100 | > 100 | 62.1 µM | > 100 | – | – | – | – | – | – | –
13 | O=C1CCC23CC(C=CC=C12)n1c(=O)n(-c2ccccc2)c(=O)n13 (centres undefined) | > 100 | > 100 | > 100 | > 100 | > 100 | > 100 | > 100 | > 100 | > 100 µM | – | – | – | – | – | – | – | –
14 | CCC[C@@H](O)C[C@@H]1CCC[C@H](C[C@@H](O)CC)N1C | > 100 | > 100 | > 100 | > 100 | > 100 | 5.06 | – | > 100 | > 100 µM | > 100 | – | – | – | – | – | – | –
15 | COc1ccc(N2C(=O)C3c4[nH]c5ccccc5c4C4CCC(C(C)(C)C)CC4C3C2=O)c(C)c1 (centres undefined) | > 100 | > 100 | – | – | > 100 | – | – | > 100 | > 100 µM | > 100 | – | – | – | – | – | – | –
16 | C(/c1ccco1)=c1/nc(-c2ccccc2)n2c1nc1ccccc12 | > 100 | 68.3 | > 100 | > 100 | > 100 | > 100 | > 100 | 71.1 | – | 54.4 | – | – | – | – | – | – | –
17 | CC(=O)Nc1ccc(-c2nnc(SCC(=O)Nc3ccc([N+](=O)[O-])cc3)o2)cc1 | 29.8 | > 100 | – | 33.3 | 34.6 | 37.7 | 27 | 25 | – | – | – | – | – | – | – | – | –
18 | Cc1cccc2c(=O)cc(-c3ccccc3)[nH]c12 | > 100 | > 100 | 36 | > 100 | > 100 | – | > 100 | > 100 | 18.1 µM | – | – | – | – | – | – | – | –
19 | O=S1(=O)NC(=NCc2c[nH]c3ccccc23)N(c2ccccc2)c2ccncc21 | > 100 | > 100 | > 100 | > 100 | > 100 | > 100 | > 100 | > 100 | > 100 µM | – | – | – | – | – | – | – | –
20 | CCCN=C1CCN(Cc2ccccc2)c2ccccc2N1 | > 100 | 19.4 | 25.4 | 31.6 | > 100 | – | 22.1 | > 100 | – | > 100 | – | – | – | – | – | – | –
21 | CCOC(=O)N1CCC2(CC1)C[C@](C)(C(C)=O)C(C)O2 (some centres undefined) | – | > 100 | > 100 | > 100 | > 100 | > 100 | > 100 | – | > 100 µM | – | – | – | – | – | – | – | –
22 | Cc1cc(=O)[nH]c(NN2C(Cl)C(=O)C2c2ccccc2O)n1 (centres undefined) | > 64 | > 100 | > 100 | > 100 | > 78.1 | 32.4 | – | > 42.7 | > 100 µM | > 100 | – | – | – | – | – | – | –
23 | O=C(O)c1cccc2c1/C(=N/Nc1ccccc1)CC2 | – | > 100 | > 100 | > 100 | > 100 | > 100 | – | > 100 | > 100 µM | > 100 | – | – | – | – | – | – | –
